Data from patent US8759098B2, “Method for cloning pluripotent stem cells” (Boston Biomedical Research Institute, Inc., priority 2009, dated 2014).

Columns and labels:
Assay type in all cases: cell-based, mouse
[1] = system: SACK-responsive, Pdx1-positive Panstra-25 pancreatic stem cells; assay: Gene-free iPSC reprogramming on STO feeders, colony phenotypes, Panstra-25; conditions: Panstra-25; hiFBS, 1 mM Xn
Description: (§1) Each tested SACK-derived cell strain was cultured on STO cell feeder monolayers in control medium with 10% DFBS, dialyzed fetal bovine serum (DFBS) or either of two commercial media for culture of murine embryonic stem cells (ESCs) and for the culture of reprogrammed cells such as iPSCs. Each medium condition was evaluated with or without supplementation with 1 mM xanthine (Xn). P/S denotes routine use of the antibiotics penicillin and streptomycin.
(§2) The method is an original pharmacological procedure for producing pluripotent stem cells. Cell strains derived in xanthine (Xn)-supplemented medium, by the method of suppression of asymmetric cell kinetics (SACK), were cultured in commercial media specified for the culture and/or production of pluripotent stem cells such as embryonic stem cells and iPSCs. Approximately 150,000 cells were plated on confluent STO cell feeders (i.e., mouse embryonic fibroblasts pre-treated with mitomycin C) in 10-cm culture dishes. In 2 weeks, iPSC-like cell colonies were detected.
(§3) To establish clonal strains, single colonies were picked, cultured in individual wells, and expanded for further study and cryo-preservation. A high fraction of the derived cell clones have morphological and biochemical properties indicative of iPSC cells.
(§4) Tissue-specific stem cells (e.g., Panstra-25 and Panstra-12 mouse pancreatic stem cell strains in the instant example) were cultured on mitomycin C-treated STO cell monolayers in commercial embryonic stem cell medium supplemented with the purine salvage base xanthine at 1 mM concentration (FIG. 4). Within 2-3 weeks of culture under otherwise standard conditions, cell colonies with embryonic stem cell-like morphology developed (FIG. 7B). These colonies were removed by mild trypsin treatment, transferred to individual cell culture wells prepared with STO cell feeders, and expanded in the respective embryonic stem cell culture medium supplemented with 1 mM xanthine (FIG. 5). The expanded cell clones expressed alkaline phosphatase (FIG. 8), a biochemical biomarker for the pluripotent phenotype of embryonic stem cells and iPSC cells. […] Xn supplementation increased the average production efficiency by as much as 3-fold (Table 6).

[2] = system: SACK-responsive, Pdx1-negative Panstra-12 pancreatic stem cells; assay: Gene-free iPSC reprogramming on STO feeders, colony phenotypes, Panstra-12; conditions: for Estimated gene-free iPSC colony formation efficiency, ES, AP+ (iPSC state) / Estimated gene-free iPSC colony formation efficiency, ES, AP− / Estimated gene-free iPSC colony formation efficiency, Fl, AP+ / Estimated gene-free iPSC colony formation efficiency, Fl, AP− / Phenotype ES, AP+ (iPSC state) of individual cell clones following expansion, clones/total / Phenotype ES, AP+ (iPSC state) of individual cell clones following expansion, percent / Phenotype ES, AP− of individual cell clones following expansion, clones/total / Phenotype ES, AP− of individual cell clones following expansion, percent / Phenotype Fl, AP+ of individual cell clones following expansion, clones/total / Phenotype Fl, AP+ of individual cell clones following expansion, percent / Phenotype Fl, AP− of individual cell clones following expansion, clones/total / Phenotype Fl, AP− of individual cell clones following expansion, percent: Panstra-12, 1 mM Xn
Description: as §1, §2, §3, §4

Panstra 11 [3] = assay: Gene-free iPSC reprogramming, Panstra 11; conditions: Panstra 11, SACK agent Xn
Description: as §1, §2
(§5) Tissue-specific stem cells (e.g., Panstra-25 and Panstra-12 mouse pancreatic stem cell strains in the instant example) were cultured on mitomycin C-treated STO cell monolayers in commercial embryonic stem cell medium supplemented with the purine salvage base xanthine at 1 mM concentration (FIG. 4). […]

Panstra 56 [4] = assay: Gene-free iPSC reprogramming, Panstra 56; conditions: Panstra 56, SACK agent Xn
Description: as §1, §2, §5

Panstra 11 [5] = assay: SACK responsiveness (cell kinetics, colony formation), Panstra 11; set-up: key: SACK-responsive (R); non-responsive (NR); conditions: Panstra 11, SACK agent Xn
Description: (§6) Cells were plated at colony forming density in SACK-free culture medium (Control) or culture medium supplemented to 1 mM concentration with the SACK agents xanthosine (Xs), xanthine (Xn), or hypoxanthine (Hx).
(§7) The terms “SACK-R” and “Xn-responsive” are used interchangeably. Xn-responsive cells are not transformed cells.
(§8) In the example, the differentiated cells are adult mouse pancreatic islet cells and Xn is the chemical compound used to suppress asymmetric cell kinetics (SACK). […] These Xn-treated and Xn-responsive cells then proceeded to express alkaline phosphatase, a known enzyme marker that is highly expressed in undifferentiated cells such as primordial germ cells (FIG. 8), after culture in media that support the proliferation of mouse pluripotent stem cells. Under these conditions, these Xn-expanded and Xn-responsive cells also multiply to form colonies that take on a clonal mouse embryonic stem cell-like morphology in culture, resembling a compact clump of round tiny cells, the clump having a smooth and well defined edge (FIG. 7B).
(§9) The SACK-derived clonal pancreatic cell strains have properties of either beta-cell precursors (Pdx1+) or more primitive pancreatic cells (Pdx1−). In the colony formation analyses, three hundred (300) cells were plated in replicate (n=3) 30-mm diameter culture dishes. […] Ten days later, plates were stained with crystal violet and colonies counted. […]

Panstra 12 = assay: SACK responsiveness (cell kinetics, colony formation), Panstra 12; set-up: key: SACK-responsive (R); non-responsive (NR); conditions: Panstra 12, SACK agent Xn
From the text: as §7, §8
(§10) The SACK-derived clonal pancreatic cell strains have properties of either beta-cell precursors (Pdx1+) or more primitive pancreatic cells (Pdx1−). In the colony formation analyses, three hundred (300) cells were plated in replicate (n=3) 30-mm diameter culture dishes. Twenty-four hours later, the culture medium was replaced with the medium supplemented with SACK agents as indicated. Ten days later, plates were stained with crystal violet and colonies counted. Xs, xanthosine; Xn, xanthine; Hx hypoxanthine.

Panstra 25 = assay: SACK responsiveness (cell kinetics, colony formation), Panstra 25; set-up: key: SACK-responsive (R); non-responsive (NR); conditions: Panstra 25, SACK agent Xn
Description: as §6, §7, §8, §9

Panstra 56 [6] = assay: SACK responsiveness (cell kinetics, colony formation), Panstra 56; set-up: key: SACK-responsive (R); non-responsive (NR); conditions: Panstra 56, SACK agent Xn
From the text: as §7, §8, §10

SACK-R strain Panstra-25 = assay: Insulin expression by immunofluorescence, pancreatic differentiation; conditions: routine culture conditions with Xn supplementation, three days
From the text: Upper panels, routine culture conditions with Xn supplementation; lower panels, Xn-free differentiation conditions. DAPI, detection of corresponding cell nuclei. The expression of insulin was detected by immunofluorescence (data not shown). In order to study the formation of islet-like clusters after induction of differentiation in Xn-free medium, pancreatic beta-cell differentiation was induced by plating the cells on a poly-D-lysine substrate and changing growth medium to medium containing 1% dialysed fetal bovine serum, 20 ng/mL epidermal growth factor (EGF), 10 mM nicotinamide, and 25 mM glucose. […] Insulin was expressed in cells differentiated in Xn-free conditions after three days. The expression of insulin was detected by immunofluorescence (data not shown). DAPI, detection of corresponding cell nuclei. […] These properties of self-renewal in an undifferentiated state and the ability to produce differentiated pancreatic cells define the SACK-R strains as pancreatic tissue stem cells.

O=c1[nH]c(=O)c2[nH]cnc2[nH]1 [Xn, xanthine]
Phenotype Fl, AP− of individual cell clones following expansion, percent [1]: 26%
iPSC (gene-free iPSC reprogramming) ([2]; Panstra 12, SACK agent Xn): Yes
Estimated gene-free iPSC colony formation efficiency, ES, AP+ (iPSC state) ([2]; DFBS): 0.000%
Estimated gene-free iPSC colony formation efficiency, ES, AP− ([2]; DFBS): 0.047%
Estimated gene-free iPSC colony formation efficiency, Fl, AP+ ([2]; DFBS): 0.027%
Estimated gene-free iPSC colony formation efficiency, Fl, AP− ([2]; DFBS): 0.080%
Phenotype ES, AP+ (iPSC state) of individual cell clones following expansion, clones/total ([2]; DFBS): 0/23
Phenotype ES, AP+ (iPSC state) of individual cell clones following expansion, percent ([2]; DFBS): 0%
Phenotype ES, AP− of individual cell clones following expansion, clones/total ([2]; DFBS): 7/23
Phenotype ES, AP− of individual cell clones following expansion, percent ([2]; DFBS): 31%
Phenotype Fl, AP+ of individual cell clones following expansion, clones/total ([2]; DFBS): 4/23
Phenotype Fl, AP+ of individual cell clones following expansion, percent ([2]; DFBS): 17%
Phenotype Fl, AP− of individual cell clones following expansion, clones/total ([2]; DFBS): 12/23
Phenotype Fl, AP− of individual cell clones following expansion, percent ([2]; DFBS): 52%
Estimated gene-free iPSC colony formation efficiency, ES, AP+ (iPSC state) ([2]; KOSR): 0.067%
Estimated gene-free iPSC colony formation efficiency, ES, AP− ([2]; KOSR): 0.033%
Estimated gene-free iPSC colony formation efficiency, Fl, AP+ ([2]; KOSR): 0.007%
Estimated gene-free iPSC colony formation efficiency, Fl, AP− ([2]; KOSR): 0.007%
Phenotype ES, AP+ (iPSC state) of individual cell clones following expansion, clones/total ([2]; KOSR): 10/17
Phenotype ES, AP+ (iPSC state) of individual cell clones following expansion, percent ([2]; KOSR): 59%
Phenotype ES, AP− of individual cell clones following expansion, clones/total ([2]; KOSR): 5/17
Phenotype ES, AP− of individual cell clones following expansion, percent ([2]; KOSR): 29%
Phenotype Fl, AP+ of individual cell clones following expansion, clones/total ([2]; KOSR): 1/17
Phenotype Fl, AP+ of individual cell clones following expansion, percent ([2]; KOSR): 6%
Phenotype Fl, AP− of individual cell clones following expansion, clones/total ([2]; KOSR): 1/17
Phenotype Fl, AP− of individual cell clones following expansion, percent ([2]; KOSR): 6%
Estimated gene-free iPSC colony formation efficiency, ES, AP+ (iPSC state) ([2]; hiFBS): 0.020%
Estimated gene-free iPSC colony formation efficiency, ES, AP− ([2]; hiFBS): 0.033%
Estimated gene-free iPSC colony formation efficiency, Fl, AP+ ([2]; hiFBS): 0.000%
Estimated gene-free iPSC colony formation efficiency, Fl, AP− ([2]; hiFBS): 0.073%
Phenotype ES, AP+ (iPSC state) of individual cell clones following expansion, clones/total ([2]; hiFBS): 3/19
Phenotype ES, AP+ (iPSC state) of individual cell clones following expansion, percent ([2]; hiFBS): 16%
Phenotype ES, AP− of individual cell clones following expansion, clones/total ([2]; hiFBS): 5/19
Phenotype ES, AP− of individual cell clones following expansion, percent ([2]; hiFBS): 26%
Phenotype Fl, AP+ of individual cell clones following expansion, clones/total ([2]; hiFBS): 0/19
Phenotype Fl, AP+ of individual cell clones following expansion, percent ([2]; hiFBS): 0%
Phenotype Fl, AP− of individual cell clones following expansion, clones/total ([2]; hiFBS): 11/19
Phenotype Fl, AP− of individual cell clones following expansion, percent ([2]; hiFBS): 58%
higher rate of iPSC-like colony production, average ([2]; Pdx1− strain supplemented with Xn, p=0.024): 3 fold
increase of the conversion rate to iPSC ([2]; Xn in the iPSC media at 1 mM, strain not given): approximately 3 fold
increase of the average production efficiency of iPSC-like cell clones ([2]; Xn supplementation (Table 6)): ≤ 3 fold
iPSC (gene-free iPSC reprogramming) (Panstra 11 [3]): No
iPSC (gene-free iPSC reprogramming) (Panstra 56 [4]): No
SACK Type (Panstra 11 [5]): NR
SACK Type (Panstra 12): R
SACK Type (Panstra 25): R
SACK Type (Panstra 56 [6]): NR
expression of insulin (immunofluorescence) (SACK-R strain Panstra-25): no expressed insulin was detectable
